Test system: pS6K1 T389 and pAkt S473 in PC3 cells
Assay: Western blot based pS6K1 and pAKT assay at 24 and 48 hour timepoints
Format: cell-based
Description: Example 57: Western Blot Based pS6K1 and pAKT Assay at 24 and 48 Hour Timepoints
Assay Protocol: • 1. Seed six well plate with 500,000 PC3 cells per well and incubate for 20˜24 hour. • 2. Add compounds into the cell plate. Incubate for 24 to 48 hours. • 4. Plate is placed on ice and the media is removed via aspiration. The wells are washed with 1 mL of 1x PBS and then fully aspirated. • 5. 110 μL of 1% Triton Lysis Buffer is added and each well is scraped vigorously. • 6. Cell homogenates are transferred to 1.5 mL eppendorf tubes on ice and spun down at 4° C. for 10 minutes at 10,000 rpm. • 7. Protein concentration of resulting cell lysates were quantified utilizing a Bradford assay and the samples run analyzed via Western blot on 4-12% Bis/Tris gels with 1×MES buffer. • 8. The gels were transferred onto membranes at 50V for 100 minutes, blocked with Odyssey Blocking buffer for 30 minutes then incubated overnight with primary antibody (pS6K1 T389 Rabbit or pAkt S473 Rabbit) overnight at 4° C. on a rotator. • 9. The membranes were washed 3× with TBS-T with a 5 minute incubation between each wash then incubated with secondary antibody (LiCor IRDye 800 Donkey Anti Rabbit) for at least 30 minutes. • 10. The membranes were washed 3× with TBS-T with a 5 minute incubation between each wash. • 11. The gels were then incubated for 5 minutes with PBS at room temperature then imaged using a Li-Cor.
Compounds that are not selective by comparing pS6K1 and pAKT IC50 by kinase assays are indicated by “NO” in the “mTORC1 selective @ 90 min” column of Table 4. […] Compounds that are not selective at the 24 hrs mark are indicated by “NO” in the “mTORC1 selective @ 24 hrs” column of Table 4. “N/A” stands for “not assayed” and “N/C” stands for “not calculated”.

Structure (SMILES) | mTORC1 selective @ 24 hrs
CO[C@@H]1C[C@H](C[C@@H](C)[C@@H]2CC(=O)[C@H](C)/C=C(\C)[C@@H](O)[C@@H](OC)C(=O)[C@H](C)C[C@H](C)/C=C/C=C/C=C(\C)[C@@H](OCCOC3COC3)C[C@@H]3CC[C@@H](C)[C@@](O)(O3)C(=O)C(=O)N3CCCC[C@H]3C(=O)O2)CC[C@H]1OC(=O)N(C)CCN1CCOCC1 [I-18, [(43S,45R,47R)-4-[(2R)-2-[(28E,30E,32E,33E,39R,40S,41R,42R,44S,46S,48S,49S,51R,52R,62R)-51,62-dihydroxy-52-methoxy-39,40,41,42,53,54-hexamethyl-48-[2-(oxetan-3-yloxy)ethoxy]-55,56,57,58,59-pentaoxo-76,77-dioxa-64-azatricyclohexatriaconta-28,30,32(53),33(54)-tetraen-49-yl]propyl]-47-methoxy-45-cyclohexyl] N-methyl-N-(2-morpholinoethyl)carbamate] | Yes
CO[C@@H]1/C(C)=C/[C@@H](C)C(=O)C[C@@H]([C@H](C)C[C@@H]2CC[C@@H](OP(C)(C)=O)[C@H](OC)C2)OC(=O)[C@@H]2CCCCN2C(=O)C(=O)[C@]2(O)O[C@@H](CC[C@H]2C)C[C@H](OCCOC2CCOCC2)/C(C)=C/C=C/C=C/[C@@H](C)C[C@@H](C)C(=O)[C@@H]1OC [I-55, (1R,9S,12S,15R,16E,18R,19R,21R,23S,24E,26E,28E,30S,32S,35R)-12-[(1R)-2-[(1S,3R,4R)-4-dimethylphosphoryloxy-3-methoxy-cyclohexyl]-1-methyl-ethyl]-1-hydroxy-18,19-dimethoxy-15,17,21,23,29,35-hexamethyl-30-(2-tetrahydropyran-4-yloxyethoxy)-11,36-dioxa-4-azatricyclo[30.3.1.0^4,9]hexatriaconta-16,24,26,28-tetraene-2,3,10,14,20-pentone] | No
COCCO[C@@H]1CC[C@@H](C[C@@H](C)[C@@H]2CC(=O)[C@H](C)/C=C(\C)[C@@H](O)[C@@H](OC)C(=O)[C@H](C)C[C@H](C)/C=C/C=C/C=C(\C)[C@@H](OCc3cnccn3)C[C@@H]3CC[C@@H](C)[C@@](O)(O3)C(=O)C(=O)N3CCCC[C@H]3C(=O)O2)C[C@H]1OC [I-57, (1R,9S,12S,15R,16E,18R,19R,21R,23S,24E,26E,28E,30S,32S,35R)-1,18-dihydroxy-19-methoxy-12-[(1R)-2-[(1S,3R,4R)-3-methoxy-4-(2-methoxyethoxy)cyclohexyl]-1-methyl-ethyl]-15,17,21,23,29,35-hexamethyl-30-(pyrazin-2-ylmethoxy)-11,36-dioxa-4-azatricyclo[30.3.1.0^4,9]hexatriaconta-16,24,26,28-tetraene-2,3,10,14,20-pentone] | Yes
CO[C@@H]1C[C@H](C[C@@H](C)[C@@H]2CC(=O)[C@H](C)/C=C(\C)[C@@H](O)[C@@H](OC)C(=O)[C@H](C)C[C@H](C)/C=C/C=C/C=C(\C)[C@@H](OCc3cnccn3)C[C@@H]3CC[C@@H](C)[C@@](O)(O3)C(=O)C(=O)N3CCCC[C@H]3C(=O)O2)CC[C@H]1OCCO [I-59, (1R,9S,12S,15R,16E,18R,19R,21R,23S,24E,26E,28E,30S,32S,35R)-1,18-dihydroxy-12-[(1R)-2-[(1S,3R,4R)-4-(2-hydroxyethoxy)-3-methoxy-cyclohexyl]-1-methyl-ethyl]-19-methoxy-15,17,21,23,29,35-hexamethyl-30-(pyrazin-2-ylmethoxy)-11,36-dioxa-4-azatricyclo[30.3.1.0^4,9]hexatriaconta-16,24,26,28-tetraene-2,3,10,14,20-pentone] | Yes
